The test system of experiment [1] is MCF7. Nature of the experiment: Antiproliferative activity against human MCF7 cells after 48 hrs by resazurin reduction test. Conditions: MCF7, 48 h.
Experiment [2] concerns the target Cyclin-dependent kinase 5/CDK5 activator 1 (Homo sapiens, UniProt Q00535). Nature of the experiment: Inhibition of human recombinant CDK5/p25 using Histone H1 and [gamma32]-ATP after 30 mins by scintillation counting. The class given is protein-complex assay.
Experiment [3] is described as follows: Inhibition of pig brain CK1 delta/epsilon using RRKHAAIGpSAYSITA as substrate. Set-up: species or system Sus scrofa.
For experiment [4], the system named is HT-22. Nature of the experiment: Antiproliferative activity against mouse HT22 cells by MTS reduction assay.
For experiment [5], the system named is SH-SY5Y. Nature of the experiment: Antiproliferative activity against human SH-SY5Y cells by MTS reduction assay. (Formazan colour is commonly taken as a measure of viable cells.)
In experiment [6] the target is Dual specificity tyrosine-phosphorylation-regulated kinase 1A (Rattus norvegicus, UniProt Q63470). Nature of the experiment: Inhibition of rat recombinant GST-tagged DYRK1A using myelin protein as substrate and [gamma32]-ATP after 30 mins by scintillation counting.
Experiment [7] relates to PA-1. Put plainly: Antiproliferative activity against human PA1 cells after 48 hrs by resazurin reduction test. The class given is functional, cell-based. To be noted: PA-1, 48 h. A general note: Alamar Blue is a resazurin reagent that responds to reducing activity.
For experiment [8], the system named is PC-3. Put plainly: Antiproliferative activity against human PC3 cells after 48 hrs by resazurin reduction test. Conditions: PC-3, 48 h.
The subject of experiment [9] is IMR-32. Nature of the experiment: Antiproliferative activity against human IMR32 cells by MTS reduction assay.
The target in experiment [10] is Dual specificity protein kinase CLK1 (Homo sapiens, UniProt P49759).
Sequence of Dual specificity protein kinase CLK1 (P49759 whole entry): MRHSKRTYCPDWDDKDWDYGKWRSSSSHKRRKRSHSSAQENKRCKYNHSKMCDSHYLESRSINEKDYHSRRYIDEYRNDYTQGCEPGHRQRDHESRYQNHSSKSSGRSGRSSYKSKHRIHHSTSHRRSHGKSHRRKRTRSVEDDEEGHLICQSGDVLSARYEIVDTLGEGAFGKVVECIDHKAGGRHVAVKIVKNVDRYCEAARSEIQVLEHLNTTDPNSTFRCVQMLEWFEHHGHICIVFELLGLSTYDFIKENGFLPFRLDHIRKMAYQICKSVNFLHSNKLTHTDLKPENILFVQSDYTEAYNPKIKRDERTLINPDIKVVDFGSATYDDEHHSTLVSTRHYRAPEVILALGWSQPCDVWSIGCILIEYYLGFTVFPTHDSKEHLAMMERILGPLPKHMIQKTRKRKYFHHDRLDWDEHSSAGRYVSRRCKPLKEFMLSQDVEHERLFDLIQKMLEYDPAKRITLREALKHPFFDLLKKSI
The target in experiment [11] is Glycogen synthase kinase-3 (Sus scrofa, UniProt B2LUN4+I6LNT8). Nature of the experiment: Inhibition of pig brain GSK-3alpha/beta using YRRAAVPPSPSLSRHSSPHQSpEDEEE as substrate.
A short description of experiment [12]: Antiproliferative activity against human primary fibroblasts after 48 hrs by resazurin reduction test. The class given is cell-based. Conditions: Fibroblast.
The test system of experiment [13] is DU-145. Nature of the experiment: Antiproliferative activity against human DU145 cells after 48 hrs by resazurin reduction test. The class given is functional, cell-based. Conditions: DU-145, 48 h.

In ChEMBL document CHEMBL1799982, “Synthesis, protein kinase inhibitory potencies, and in vitro antiproliferative activities of meridianin derivatives” (J Med Chem, 2011) one finds IC50 data, which are given here for 20 compounds.

What is called IC50 is the concentration that inhibits the measured activity by half.

Sequence of Cyclin-dependent kinase 5/CDK5 activator 1 (Q00535 whole entry): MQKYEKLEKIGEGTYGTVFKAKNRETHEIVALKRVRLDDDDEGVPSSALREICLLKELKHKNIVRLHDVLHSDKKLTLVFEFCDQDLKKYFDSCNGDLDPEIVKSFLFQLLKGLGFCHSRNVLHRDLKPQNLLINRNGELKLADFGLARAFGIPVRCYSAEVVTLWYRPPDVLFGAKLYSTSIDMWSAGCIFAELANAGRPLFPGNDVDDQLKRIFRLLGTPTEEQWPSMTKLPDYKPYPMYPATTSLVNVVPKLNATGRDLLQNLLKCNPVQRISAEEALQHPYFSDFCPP
Sequence of Cyclin-dependent kinase 5/CDK5 activator 1 (Q15078 whole entry, further chain): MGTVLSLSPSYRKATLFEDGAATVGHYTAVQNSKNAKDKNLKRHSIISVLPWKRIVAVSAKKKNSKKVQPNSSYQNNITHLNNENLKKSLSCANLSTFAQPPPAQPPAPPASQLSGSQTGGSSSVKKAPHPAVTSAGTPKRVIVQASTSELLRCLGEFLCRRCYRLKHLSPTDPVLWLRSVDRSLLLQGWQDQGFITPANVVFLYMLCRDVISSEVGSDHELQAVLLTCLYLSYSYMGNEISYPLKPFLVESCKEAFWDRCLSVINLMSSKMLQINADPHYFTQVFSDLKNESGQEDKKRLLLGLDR

Turning to `CC(=O)c1ccc(-c2cnc(N)nc2-c2c[nH]c3cccc(Br)c23)cc1`, the IC50 in experiment [1] was more than 10 µM; in [2], 7 µM; in [3] it was more than 10 µM; in experiment [4], more than 10 µM; in [5], more than 10 µM; in experiment [6], 2.1 µM. Moreover, the IC50 in experiment [7], in [8] and in [9] was more than 10 µM throughout.

With `Nc1nccc(-c2c[nH]c3c(Br)cccc23)n1`, the IC50 in [10] was 0.065 µM; in [1] it was more than 25 µM; in experiment [2], 3.1 µM; in experiment [11], more than 10 µM; in experiment [3] it was 4.2 µM; in experiment [4] it was more than 25 µM. Moreover, the IC50 was more than 25 µM in [5], 0.068 µM in [6] and 25 µM in experiment [9].

In the case of `Nc1nccc(-c2c[nH]c3c([N+](=O)[O-])cccc23)n1`, the IC50 was 0.07 µM in experiment [10]; more than 25 µM in experiment [1]; 6.3 µM in experiment [2]; more than 10 µM in [11]; 10 µM in experiment [3]; more than 25 µM in experiment [4]. Further, the IC50 in experiment [5] is more than 25 µM; in experiment [6] it was 0.085 µM; in [9], more than 25 µM.

`Nc1ncc(-c2ccc(C(F)(F)F)cc2)c(-c2c[nH]c3cc(Br)ccc23)n1`: the IC50 in [10] is more than 10 µM; in [1], more than 10 µM; in [2], more than 10 µM; in experiment [11], 6.1 µM; in experiment [3] it was more than 10 µM; in experiment [4] it was more than 10 µM. Besides, the IC50 in experiment [5], in experiment [6], in [7], in experiment [8] and in [9] was more than 10 µM each time.

As for `Nc1ncc(I)c(-c2c[nH]c3ccccc23)n1`, the 50% inhibitory concentration (IC50) in [12] stood at 8 µM; in [10], 0.03 µM; in experiment [1], 17 µM; in experiment [2], 1.4 µM; in experiment [11], 3.7 µM; in [3], 0.9 µM. The IC50 in experiment [4] is 7.3 µM; in [13] it was 5 µM; in experiment [5] it was 7.5 µM; in [6], 0.066 µM; in experiment [7] it was 3.3 µM; in [8] it was 10.6 µM. Besides, half-maximal inhibition in [9] (IC50) required 10 µM.

Consider `Nc1nccc(-c2c[nH]c3cccc(Br)c23)n1`, for which the IC50 in experiment [10] was 1.4 µM; in experiment [1], more than 25 µM; in experiment [2], 10 µM; in experiment [11] it was more than 10 µM; in experiment [3], 5.3 µM; in experiment [4] it was more than 25 µM. The IC50 in experiment [5] was more than 25 µM; in experiment [6] it was 0.85 µM; in experiment [9] it was more than 25 µM.

On to `CC(=O)Nc1ccc(-c2cnc(N)nc2-c2c[nH]c3cccc(Br)c23)cc1`, for which the IC50 in experiment [10], in experiment [1], in experiment [2], in experiment [11], in experiment [3] and in [4] was more than 10 µM throughout. Further, the IC50 in [5], in experiment [6], in [7], in experiment [8] and in experiment [9] was more than 10 µM in each case.

In the case of `Nc1ncc(-c2ccc(C(F)(F)F)cc2)c(-c2c[nH]c3cccc(Br)c23)n1`, the half-inhibitory concentration (IC50) in experiment [10] was 1.3 µM; in [1] it was more than 10 µM; in [2] it was 4.7 µM; in [11], 1 µM; in experiment [3], more than 10 µM; in experiment [4] it was more than 10 µM. For the same compound, the IC50 in experiment [5] is more than 10 µM; in [6], 1.85 µM; in experiment [7] it was more than 10 µM; in experiment [8], more than 10 µM; in [9], more than 10 µM.

Consider `Nc1nccc(-c2c[nH]c3cc([N+](=O)[O-])ccc23)n1`, for which the IC50 in experiment [10] was 0.38 µM; in experiment [1] it was more than 25 µM; in experiment [2], more than 10 µM; in experiment [11] it was more than 10 µM; in experiment [3], 6.3 µM; in experiment [4], more than 25 µM. In addition, the IC50 is more than 25 µM in experiment [5], 1.1 µM in experiment [6] and more than 25 µM in [9].

In the case of `Nc1nccc(-c2c[nH]c3cc(Br)ccc23)n1` [MERIDIANIN D], the 50% inhibitory concentration (IC50) was 0.12 µM in experiment [10]; more than 25 µM in [1]; 1.2 µM in experiment [2]; 7.2 µM in experiment [11]; 3.8 µM in experiment [3]; more than 25 µM in experiment [4]. The values for the IC50 in [5], in [6] and in experiment [9] were more than 25 µM, 0.13 µM and more than 25 µM, respectively.

As for `Nc1ncc(I)c(-c2c[nH]c3ccc(Br)cc23)n1`, the IC50 in [10] is 0.18 µM; in [1], more than 25 µM; in experiment [2], 1.8 µM; in experiment [11] it was 2.1 µM; in experiment [3] it was 0.77 µM; in experiment [4], 8 µM. Moreover, the IC50 in experiment [5] is 23 µM; in experiment [6], 0.33 µM; in experiment [7] it was more than 10 µM; in experiment [8], more than 10 µM; in [9], 13 µM.

As to `COc1cccc(-c2cnc(N)nc2-c2c[nH]c3cc(Br)ccc23)c1`, the IC50 is 2.3 µM in experiment [10]; more than 25 µM in experiment [1]; more than 10 µM in experiment [2]; 4.5 µM in experiment [11]; 3.2 µM in experiment [3]; 16 µM in experiment [4]. Further, the IC50 is more than 25 µM in [5]; 8.2 µM in experiment [6]; more than 10 µM in experiment [7]; more than 10 µM in experiment [8]; 18 µM in experiment [9].

Take `Nc1nccc(-c2c[nH]c3ccccc23)n1`: the IC50 in [10] was 0.53 µM; in [1], more than 25 µM; in experiment [2], 5 µM; in experiment [11], more than 10 µM; in [3], 6.2 µM; in experiment [4] it was more than 25 µM. The IC50 in experiment [5] is more than 25 µM; in experiment [6], 0.7 µM; in experiment [9] it was more than 25 µM.

On to `CC(=O)Nc1ccc(-c2cnc(N)nc2-c2c[nH]c3ccc(Br)cc23)cc1`, for which the IC50 in experiment [10] was 0.75 µM; in [1], more than 10 µM; in experiment [2], 6.8 µM; in [11], 0.4 µM; in experiment [3] it was 2.1 µM; in experiment [4] it was more than 10 µM. In addition, the IC50 in [5] was more than 10 µM; in experiment [6], 4.15 µM; in experiment [7] it was more than 10 µM; in experiment [8] it was more than 10 µM; in experiment [9] it was more than 10 µM.

As for `COc1cccc(-c2cnc(N)nc2-c2c[nH]c3ccc(Br)cc23)c1`, the IC50 is 2.5 µM in experiment [10]; more than 25 µM in [1]; 7.6 µM in experiment [2]; 1.2 µM in experiment [11]; 2.2 µM in [3]; 18 µM in experiment [4]. The IC50 in experiment [5] is more than 25 µM; in [6], 5.65 µM; in experiment [7] it was more than 10 µM; in [8], more than 10 µM; in [9], 20 µM.

As for `CC(=O)c1ccc(-c2cnc(N)nc2-c2c[nH]c3ccc(Br)cc23)cc1`, the IC50 is 1.6 µM in [10]; 4.2 µM in experiment [1]; more than 10 µM in experiment [2]; 0.68 µM in experiment [11]; more than 10 µM in experiment [3]; 10 µM in experiment [4]. Further, the IC50 was more than 25 µM in [5]; 8.45 µM in [6]; more than 10 µM in experiment [7]; more than 10 µM in experiment [8]; 13 µM in [9].

In the case of `Nc1ncc(I)c(-c2c[nH]c3cccc(Br)c23)n1`, the half-inhibitory concentration (IC50) was 2.3 µM in experiment [10]; more than 10 µM in [1]; more than 10 µM in [2]; more than 10 µM in [11]; 1.3 µM in [3]; more than 10 µM in experiment [4]. The IC50 in experiment [5] is more than 10 µM; in [6], 1.45 µM; in experiment [7] it was more than 10 µM; in experiment [8], more than 10 µM; in experiment [9], more than 10 µM.

`Nc1nccc(-c2c[nH]c3ccc(Br)cc23)n1` [MERIDIANIN C]: the IC50 in experiment [10] was determined as 0.22 µM; in experiment [1], 24 µM; in [2] it was 1.2 µM; in experiment [11], 1.3 µM; in experiment [3], 7.3 µM; in experiment [4] it was 9.3 µM. Further, the IC50 was more than 25 µM in experiment [5], 0.33 µM in experiment [6] and more than 25 µM in experiment [9].

As to `COc1cccc(-c2cnc(N)nc2-c2c[nH]c3cccc(Br)c23)c1`, the IC50 in experiment [10] is 1.3 µM; in experiment [1], more than 10 µM; in [2], 6 µM; in experiment [11] it was 1.4 µM; in [3], more than 10 µM; in experiment [4], more than 10 µM. Further, the IC50 in [5] is more than 10 µM; in experiment [6] it was 0.81 µM; in experiment [7], more than 10 µM; in experiment [8], more than 10 µM; in experiment [9], more than 10 µM.

As for `Nc1ncc(-c2ccc(C(F)(F)F)cc2)c(-c2c[nH]c3ccc(Br)cc23)n1`, the IC50 in experiment [10] was more than 10 µM; in experiment [1], more than 10 µM; in [2], more than 10 µM; in experiment [11], 2 µM; in [3], more than 10 µM; in [4] it was more than 10 µM. The IC50 in experiment [5], in [6], in [7], in experiment [8] and in experiment [9] was more than 10 µM each time.
